Experimental data as given in patent US6559170B1, “Pyridine derivatives having fungicidal activity and processes to produce and use same” (Dow AgroScience LLC, priority 1999, dated 2003).

What was measured:
[1] = tested on: Erysiphe graminis—ERYSGT; experiment: Powdery Mildew of Wheat, 1-day protectant whole plant test; assay type: in vivo; settings: 100 ppm spray, 1-day protectant (1DP), wheat cultivar Monon
[2] = tested on: Phytophthora infestans—PHYTIN; assay type: in vivo; settings: 100 ppm spray, 1-day protectant (1DP), tomatoes cultivar Rutgers
[3] = tested on: Leptosphaeria nodorum—LEPTNO; experiment: Glume blotch of wheat, 1-day protectant whole plant test; assay type: in vivo; settings: 100 ppm spray, 1-day protectant (1DP), wheat cultivar Monon
[4] = tested on: Puccinia recondita—PUCCRT; experiment: Brown rust of wheat, 1-day protectant whole plant test; assay type: in vivo; settings: 100 ppm spray, 1-day protectant (1DP), wheat cultivar Monon

Compound | ERYSGT percent control of the plant disease compared with untreated, inoculated plants [1] [%] | PHYTIN percent control of the plant disease compared with untreated, inoculated plants [2] [%] | LEPTNO percent control of the plant disease compared with untreated, inoculated plants [3] [%] | PUCCRT percent control of the plant disease compared with untreated, inoculated plants [4] [%] | melting point [°C]
CNC(=O)C(=NOC)c1ccccc1COc1cccc(Sc2cccc(C(F)(F)F)c2)n1 [Compound 22] | 92 | 100 | 78 | 98 | 
CNC(=O)C(=NOC)c1ccccc1COc1nc(Sc2ccc(C(F)(F)F)cc2)c(Cl)cc1Cl [Compound 13] | 98 | 0 | 0 | 98 | 
CNC(=O)C(=NOC)c1ccccc1COc1cccc(Sc2ccc(Br)cc2)n1 [Compound 19] | 98 | 100 | 98 | 100 | 
CNC(=O)C(=NOC)c1ccccc1COc1nc(Sc2ccc(Cl)cc2)c(Cl)cc1Cl [Compound 11] | 69 | 44 | 0 | 89 | 
CNC(=O)C(=NOC)c1ccccc1COc1cccc(Sc2ccccc2F)n1 [Compound 27] | 77 | 100 | 98 | 100 | 
CNC(=O)C(=NOC)c1ccccc1COc1cccc(Sc2cccc(F)c2)n1 [Compound 30] | 98 | 100 | 98 | 100 | 
CNC(=O)C(=NOC)c1cccc(Cl)c1COc1ccc(Sc2ccc(Cl)cc2)cn1 [Compound 5, 2-Methoxyimino-N-methyl-{3-chloro-2-[5-(4-chlorophenyl)thio-2-pyridyloxy]methylphenyl}acetamide] | 85 | 99 | 98 | 100 | 116 to 118
CNC(=O)C(=NOC)c1ccccc1COc1cccc(Sc2ccccc2C)n1 [Compound 17] | 92 | 100 | 98 | 100 | 
CNC(=O)C(=NOC)c1ccccc1COc1nc(Sc2ccccc2)c(Cl)cc1Cl [Compound 10] | 99 | 96 | 98 | 100 | 
CNC(=O)C(=NOC)c1ccccc1COc1cccc(Sc2ccccc2)n1 [Compound 14] | 92 | 100 | 89 | 100 | 
CNC(=O)C(=NOC)c1ccccc1COc1cccc(Sc2ccccc2C(F)(F)F)n1 [Compound 29] | 98 | 100 | 78 | 100 | 
CNC(=O)C(=NOC)c1ccccc1COc1cccc(Sc2cccc(Cl)c2)n1 [Compound 23] | 98 | 100 | 78 | 100 | 
CNC(=O)C(=NOC)c1cccc(Cl)c1COc1ccc(Sc2cccc(C)c2)cn1 [Compound 7, 2-Methoxyimino-N-methyl-{3-chloro-2-[5-(3-methylphenyl)thio-2-pyridyloxy]methylphenyl}acetamide] | 98 | 100 | 98 | 100 | 
CNC(=O)C(=NOC)c1ccccc1COc1cccc(Sc2ccc(C)cc2)n1 [Compound 15] | 92 | 100 | 67 | 100 | 
CNC(=O)C(=NOC)c1ccccc1COc1cccc(Sc2ccc(F)cc2)n1 [Compound 24] | 85 | 100 | 98 | 100 | 
CNC(=O)C(=NOC)c1ccccc1COc1cccc(Sc2ccc(Cl)cc2)n1 [Compound 20] | 92 | 100 | 98 | 100 | 
CNC(=O)C(=NOC)c1cccc(Cl)c1COc1ccc(Sc2cccc(Cl)c2)cn1 [Compound 8, 2-Methoxyimino-N-methyl-{3-chloro-2-[5-(3-chlorophenyl)thio-2-pyridyloxy]methylphenyl}acetamide] | 98 | 100 | 98 | 98 | 
CCc1ccccc1Sc1cccc(OCc2ccccc2C(=NOC)C(=O)NC)n1 [Compound 33] | 92 | 100 | 98 | 100 | 
CNC(=O)C(=NOC)c1ccccc1COc1cccc(Sc2ccccc2Cl)n1 [Compound 25] | 77 | 94 | 98 | 100 | 
CNC(=O)C(=NOC)c1ccccc1COc1cccc(Sc2ccc3ccccc3c2)n1 [Compound 21] | 92 | 100 | 98 | 100 | 
CNC(=O)C(=NOC)c1ccccc1COc1ccc(C(F)(F)F)c(Sc2ccccc2)n1 [Compound 12] | 98 | 94 | 78 | 100 | 
CNC(=O)C(=NOC)c1ccccc1COc1cccc(Sc2cccc(C)c2)n1 [Compound 16] | 92 | 100 | 89 | 100 | 
CNC(=O)C(=NOC)c1ccccc1COc1cccc(Sc2ccc(Cl)cc2C)n1 [Compound 28] | 98 | 100 | 98 | 100 | 
CNC(=O)C(=NOC)c1ccccc1COc1cccc(Sc2cccc3ccccc23)n1 [Compound 31] | 92 | 100 | 98 | 100 | 
CNC(=O)C(=NOC)c1ccccc1COc1cccc(Sc2c(C)cccc2C)n1 [Compound 26] | 69 | 100 | 89 | 98 | 
CNC(=O)C(=NOC)c1cccc(F)c1COc1cccc(Sc2ccccc2)n1 [Compound 34] | 85 | 94 | 98 | 100 | 
CNC(=O)C(=NOC)c1ccccc1COc1nc(Sc2ccccc2)c(F)cc1F [Compound 32] | 77 | 100 | 98 | 100 | 
